Test results taken from patent publication US9606107B2, “Crk—a novel target for cancer therapy” (priority 2011, dated 2017).
Peptide text beside a SMILES is read from it. * marks the point of attachment. Cbz = O=C(OCc1ccccc1)*; CH2F = FC*

Columns and labels:
Assay type in all cases: cell-based
[1] = system: HeLa cells; assay: ACSC formation, release and signalling in transfected apoptotic HeLa cells (IF time-lapse microscopy)
Description: Specifically, HeLa cells were transiently transfected with CrkI-GFP expression vector. CrkI forms complexes (indicated […] which go through a cytoplasmic bridge from a dying cell (indicated by red arrow) and induce healthy neighbor recipient cells (indicated by yellow arrow) to divide. Six frames (FIGS. 3A-3F) from IF timelapse microscopy are shown.
FIG. 4 graphically illustrates that ACSC formation is an active process. Specifically, the incidence of apoptotic compensatory signaling complex (ACSC) release from CrkI, CrkI-R38K (SH2 DN), and CrkI-VV170K (SH3 DN) transfected HeLa cells is shown in bar chart form.
FIG. 5 graphically illustrates that ACSC formation is regulated differently by SH2 and SH3 domains. Specifically, the number of ACSC complexes per apoptotic CrkI, CrkI (SH2 DN), and CrkI (SH3 DN) transfected HeLa cells was determined and the results are presented in bar chart form.
FIGS. 6A-6C photographically illustrate that the ADPRT domain of ExoT appears to inhibit ACSC. […]
(§1) ExoT inhibits ASCS formation. […] We assessed the proliferation capacity index associated with ExoT- or CrkI apoptotic cells. […]

[2] = system: HeLa cells; assay: Proliferation capacity index of transfected apoptotic cells (mitotic cells in neighbouring cells); details: compared to CrkI-transfected apoptotic cells; within six hours after cell rounding
Description: FIG. 7 graphically illustrates that ExoT blocks ACSC-induced proliferation in surrounding cells. Specifically, the proliferation capacity index of the CrkI-EGFP or ExoTEGFP transfected apoptotic cells was defined based on the capacity to induce proliferation in the neighboring cells within six hours after cell rounding.
ExoT inhibits ASCS formation. […] If ExoT inhibited ACSC assembly and signaling, it was reasoned that there should be a reduction in the number of mitotic cells surrounding the ExoT-induced apoptotic cells. We assessed the proliferation capacity index associated with ExoT- or CrkI apoptotic cells. […] Without being bound to any particular theory, it is believed that CrkI adaptor protein functions as a scaffold for the ACSC assembly and that PA utilizes ExoT to block this process while inducing apoptosis in its target host.

[3] = system: B16 melanoma cells; assay: Cytotoxicity in B16 melanoma cells by PI staining, immunofluorescent time lapse microscopy; details: infection with ExoT-expressing P. aeruginosa, MOI 10, or transfection with ExoT-EGFP
Description: Specifically, FIGS. 8A-8C are photographs of B16 cells infected with Pseudomonas aeruginosa strains expressing ExoT or defective in ExoT (Mock) at a multiplicity of infection (MOI) 10 or treated with 50 μM cisplatinum. Cytotoxicity was determined by measuring propidium iodide (PI) staining using immunofluorescent time lapse microscopy. FIG. 8D graphically illustrates the level of cell death, for the samples of FIGS. 8A-8C as indicated by PI staining intensity in pixels as measured from each frame using NIH Image J software.
B16 cells were infected with Pseudomonas aeruginosa strains expressing ExoT or defective in ExoT (Mock), at multiplicity of infection (MOI) 10 or treated with 50 μM cisplatinum (FIGS. 8A-8C). Cytotoxicity was determined by measuring propidium iodide (PI) staining (red) using immunofluorescent time lapse microscopy. Still images are shown. The level of cell death, indicated by PI staining intensity (pixels), was measured from each frame using NIH Image J software (FIG. 8D). B16 melanoma cells were transiently transfected with pIRES expression vectors, harboring ExoT-EGFP or EGFP alone. Cytotoxicity was determined by PI staining using IF microscopy.

[4] = system: HeLa-S3 cells; assay: Cytotoxicity of ExoT-expressing PA103 infection in anoikis-resistant HeLa-S3 cells (PI uptake, video microscopy); details: ExoT-expressing PA103 strain, MOI about 10
Description: Anoikis-sensitive (HeLa) or Anoikis-resistant (HeLa S3) cells were infected with the ExoT-expressing PA strain (PA103 AU) at an MOI of ca. 10. Host cell death was assessed by uptake of propidium iodide (PI) by simultaneous time lapse phase and fluorescent video microscopy. Video images were captured every 15 min. Representative frames are shown.
To test this hypothesis, 1×10^5 HeLa and HeLa-S3 cells were infected with ExoT-expressing PA103 strain at MOI of about 10 and assessed apoptosis by immunofluorescent (IF) video microscopy in the presence of propidium iodide (PI) as described.

[5] = system: 4T1 metastatic breast tumor cells; assay: Cytotoxicity in 4T1 metastatic breast tumor cells by PI staining, immunofluorescent timelapse microscopy
Description: Specifically, in FIGS. 9A-9C, 4T1 cells were infected with PA103 strains expressing ExoT or defective in ExoT expression (Mock), or treated with 50 μM cisplatinum (Cisplatin).
Specifically, 4T1 cells were infected with PA103 strains expressing ExoT (ExoT) […] or defective in ExoT expression (Mock) (FIG. 9A), or treated with 50 μM cisplatinum (Cisplatin) (FIG. 9C). Cytotoxicity was determined by propidium iodide (PI) staining using immunofluorescent timelapse microscopy (FIG. 9D).

[6] = system: HeLa cells; assay: Apoptosis / cell death of transiently transfected HeLa cells by IF time-lapse video microscopy with propidium iodide
Description: FIGS. 2A-2D illustrate photographically, graphically and in a chart that transient transfection of DN Crk induces cell death in HeLa cells. Specifically, HeLa cells were transiently transfected with wild type CrkI (pCrkI), SH2 DN (pCrkI/R38K), or SH3 DN (pCrkI/W170K) fused to C FP in the absence (FIG. 2A) or presence (FIG. 2B) of carbobenzoxy-valyl-alanyl-aspartyl-[O-methyl], or ZVAD. The tabulated results shown in FIG. 2D, were collected from multiple videos. The time to death was defined as the time of expression of transfected gene (appearance of green) to the time of PI uptake (appearance of yellow) and expressed as the mean+SEM.
We postulated that if modification of Crk by ExoT is responsible for inducing anoikis, DN mutations in CrkI domains might also result in apoptosis, phenocopying the ExoT's cytotoxicity. To investigate this hypothesis, HeLa cells were transfected with mammalian expression vectors harboring CrkI or its SH2 (CrkI/R38K) or SH3 (CrkI/W170K) DN mutant forms, fused at their C-termini to GFP, and assessed apoptosis by IF video microscopy in the presence or absence of Z-VAD, a pancaspase inhibitor that blocks known apoptotic cell deaths. […]
as §1

ExoT
ACSC-like globular complexes in transfected apoptotic HeLa cells ([1]; transfection with ExoT fusion vectors): never observed | percentage of mitotic cells surrounding transfected apoptotic HeLa cells [2]: substantial reduction | cytotoxicity in B16 melanoma cells [3]: potent cytotoxicity | ExoT-induced cytotoxicity in HeLa-S3 cells [4]: resistant | cell death in 4T1 cells ([5]; infection with PA103 strain expressing ExoT): potent inducer of cell death | apoptosis (cell death) in transfected HeLa cells ([6]; transient transfection with expression vector, IF video microscopy, PI): 100%

N.N.[Cl][Pt][Cl] [cisplatin, cisplatinum, reference compound]
cell death in 4T1 cells ([5]; 50 μM cisplatinum): kill 4T1 cells

COC(=O)C[C@H](NC(=O)[C@H](C)NC(=O)[C@@H](NC(=O)OCc1ccccc1)C(C)C)C(=O)CF [Z-VAD, carbobenzoxy-valyl-alanyl-aspartyl-[O-methyl], reference compound] (Cbz-Val-Ala-Asp(OMe)-CH2F)
ACSC formation ([1]; treatment with Z-VAD, all conditions): completely blocked | apoptotic PCD ([6]; treatment with Z-VAD): blocked
